According to PubChem BioAssay (NCI):
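Following 48 hours of exposure in 96-well plates, responses at five concentrations were used to interpolate endpoints linearly. Here, GI50 denotes the concentration required for 50% inhibition of growth. TGI: concentration producing complete growth inhibition.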

Key:
Test in all cases: inhibition of tumour cell growth, NCI panel, 48 h
[1] = tested on: SK-MEL-2 melanoma
[2] = tested on: COLO 205 colon
[3] = tested on: A498 renal
[4] = tested on: CCRF-CEM leukemia
[5] = tested on: HL-60(TB) leukemia
[6] = tested on: HS 578T breast
[7] = tested on: BT-549 breast
[8] = tested on: UO-31 renal
[9] = tested on: OVCAR-4 ovarian
[10] = tested on: IGROV1 ovarian
[11] = tested on: NCI-H460 lung
[12] = tested on: HCC-2998 colon
[13] = tested on: NCI-H23 lung
[14] = tested on: SNB-19 CNS
[15] = tested on: SR leukemia
[16] = tested on: RXF 393 renal
[17] = tested on: SNB-75 CNS
[18] = tested on: T-47D breast
[19] = tested on: SK-MEL-28 melanoma
[20] = tested on: MDA-MB-468 breast
[21] = tested on: PC-3 prostate
[22] = tested on: UACC-62 melanoma
[23] = tested on: U251 CNS
[24] = tested on: DU-145 prostate
[25] = tested on: MALME-3M melanoma
[26] = tested on: OVCAR-8 ovarian
[27] = tested on: 786-0 renal
[28] = tested on: OVCAR-5 ovarian
[29] = tested on: TK-10 renal
[30] = tested on: SF-539 CNS
[31] = tested on: MDA-MB-435
[32] = tested on: K-562 leukemia
[33] = tested on: SK-OV-3 ovarian
[34] = tested on: SK-MEL-5 melanoma
[35] = tested on: HOP-92 NSCLC
[36] = tested on: A549 NSCLC
[37] = tested on: M14 melanoma
[38] = tested on: MOLT-4 leukemia
[39] = tested on: EKVX NSCLC
[40] = tested on: UACC-257 melanoma
[41] = tested on: SN12C renal
[42] = tested on: HCT-116 colon
[43] = tested on: KM12 colon
[44] = tested on: HOP-62 NSCLC
[45] = tested on: SF-268 CNS
[46] = tested on: RPMI-8226 leukemia
[47] = tested on: SF-295 CNS
[48] = tested on: MCF7 breast
[49] = tested on: HCT-15 colon
[50] = tested on: NCI-H226 lung
[51] = tested on: LOX IMVI melanoma
[52] = tested on: MDA-MB-231 breast
[53] = tested on: ACHN renal

`CSc1ccc(C(=O)Nc2ccc3nn(/C(C#N)=C/c4ccccn4)nc3c2)cc1` was tested, and the GI50 [1] was 896 nM, the TGI [1] was 1900 nM and the GI50 [2] was 834 nM. The TGI [2] was 1590 nM, the GI50 [3] was 5570 nM and the TGI [3] was 11900 nM. It also gave a GI50 [4] of 619 nM, a TGI [4] of 50000 nM and a GI50 [5] of 544 nM. It also gave a TGI [5] of 2190 nM, a GI50 [6] of 1700 nM and a TGI [6] of 12600 nM. It also gave a GI50 [7] of 920 nM, a TGI [7] of 1950 nM and a GI50 [8] of 712 nM. The TGI [8] was 1390 nM, the GI50 [9] was 1740 nM and the TGI [9] was 9640 nM. For the same compound, the GI50 [10] was 902 nM, the TGI [10] was 1980 nM and the GI50 [11] was 934 nM. It also gave a TGI [11] of 2110 nM, a GI50 [12] of 854 nM and a TGI [12] of 1580 nM. For the same compound, the GI50 [13] was 769 nM, the TGI [13] was 1540 nM and the GI50 [14] was 2140 nM. The TGI [14] was 8790 nM, the GI50 [15] was 327 nM and the TGI [15] was 4180 nM. The GI50 [16] was 699 nM, the TGI [16] was 1360 nM and the GI50 [17] was 948 nM. It also gave a TGI [17] of 8250 nM, a GI50 [18] of 1270 nM and a TGI [18] of 10900 nM. The GI50 [19] was 885 nM, the TGI [19] was 1820 nM and the GI50 [20] was 558 nM. It also gave a TGI [20] of 1360 nM, a GI50 [21] of 1510 nM and a TGI [21] of 6330 nM. It also gave a GI50 [22] of 819 nM, a TGI [22] of 1720 nM and a GI50 [23] of 903 nM. The TGI [23] was 1890 nM, the GI50 [24] was 1250 nM and the TGI [24] was 3850 nM. The GI50 [25] was 797 nM, the TGI [25] was 1960 nM and the GI50 [26] was 1480 nM. For the same compound, the TGI [26] was 14200 nM, the GI50 [27] was 776 nM and the TGI [27] was 1500 nM. The GI50 [28] was 990 nM, the TGI [28] was 2510 nM and the GI50 [29] was 935 nM. It also gave a TGI [29] of 2200 nM, a GI50 [30] of 811 nM and a TGI [30] of 1530 nM. For the same compound, the GI50 [31] was 759 nM, the TGI [31] was 2560 nM and the GI50 [32] was 424 nM. For the same compound, the TGI [32] was 3300 nM, the GI50 [33] was 5180 nM and the TGI [33] was 17500 nM. It also gave a GI50 [34] of 1390 nM, a TGI [34] of 4700 nM and a GI50 [35] of 677 nM. The TGI [35] was 1930 nM, the GI50 [36] was 2200 nM and the TGI [36] was 11000 nM. The GI50 [37] was 866 nM, the TGI [37] was 1880 nM and the GI50 [38] was 658 nM. The TGI [38] was 2270 nM, the GI50 [39] was 1260 nM and the TGI [39] was 5950 nM. The GI50 [40] was 1280 nM, the TGI [40] was 4190 nM and the GI50 [41] was 1140 nM. For the same compound, the TGI [41] was 2840 nM, the GI50 [42] was 822 nM and the TGI [42] was 1640 nM. It also gave a GI50 [43] of 1060 nM, a TGI [43] of 3080 nM and a GI50 [44] of 1750 nM. For the same compound, the TGI [44] was 6640 nM, the GI50 [45] was 1780 nM and the TGI [45] was 8870 nM. The GI50 [46] was 901 nM, the TGI [46] was 2970 nM and the GI50 [47] was 2360 nM. It also gave a TGI [47] of 9150 nM, a GI50 [48] of 687 nM and a TGI [48] of 1650 nM. It also gave a GI50 [49] of 511 nM, a TGI [49] of 1380 nM and a GI50 [50] of 1640 nM. It also gave a TGI [50] of 9690 nM, a GI50 [51] of 664 nM and a TGI [51] of 1340 nM. The GI50 [52] was 842 nM, the TGI [52] was 1740 nM and the GI50 [53] was 808 nM. It also gave a TGI [53] of 1600 nM.
